# Patent publication EP1242382B1, “TRICYCLIC PROTEIN KINASE INHIBITORS” (Wyeth, priority 1999, dated 2001)
# Legend:
# p60^c-src (Src) = biological target: T1, p60^c-src (Src) (Homo sapiens, UniProt P12931); test: Src kinase test procedure (Elisa format); type: biochemical
# T1 construct: purchased Upstate Biotechnologies
# Protocol: Inhibitors of p60^c-src (partially purified preparation purchased from Upstate Biotechnologies) tyrosine kinase activity are analyzed in an Elisa format. […] HRP-conjugated anti-phosphotyrosine is used to detect phosphorylated peptide via a color reaction. Conditions recommended by the manufacturer are employed.
# Reaction conditions: Five microliter aliquots of each compound prepared fresh at the time of the assay are added as a solution in 10mM HEPES pH 7.5, 10% DMSO to the reaction well. Thirty-five microliters of reaction mix containing Src, buffer and peptide/bovine serum albumin mix are added to the compound wells and incubated at 30°C for 10 minutes (reaction buffer: 50mM TrisHCl pH 7.5, 10mM MgCl2, 0.1mM EGTA, 0.5mM Na3VO4). The reaction is started by addition of 10 microliters of ATP, incubated at 30°C for 1 hour, and stopped by addition of 20 microliters of 0.5M EDTA. The reaction mixture with the phosphorylated peptide is then transferred to a streptavidin-coated microtiter plate (provided in the kit) and allowed to bind for 20 minutes. Unbound peptide and reaction mixture is decanted and the plate is washed with PBS six times. Horseradish peroxidase-conjugated phosphotyrosine antibody supplied in the kit is incubated with the plate for one hour, then decanted. The plate is again washed with PBS six times.
# A431 = test: Inhibition of cancer cell growth as measured by cell number (Sulforhodamine B); type: cell-based; settings: Homo sapiens, A-431; 48 hours exposure
# Protocol: (§1) Human tumor cell lines are plated in 96-well plates (250 µl/well, 1-6 x 10^4 cells/ml) in RPMI 1640 medium, containing 5% FBS (Fetal Bovine Serum). Twenty four hours after plating, test compounds are added at various concentrations. After 48 hours exposure to test compounds, cells are fixed with trichloroacetic acid, and stained with Sulforhodamine B. After washing with trichloroacetic acid, bound dye is solubilized in 10 mM Tris base and optical density is determined using plate reader. Under conditions of the assay the optical density is proportional to the number of cells in the well. […] The test procedure is described in detail by Philip Skehan et. al, J. Natl. Canc. Inst., 82, 1107-1112 (1990). […] Information about some of the cell lines used in these test procedures is available from the American Type Tissue Collection: Cell Lines and Hybridomas, 1994 Reference Guide, 8th Edition.
# MDA-MB-435 = test: as above; type: cell-based; settings: Homo sapiens, 48 hours exposure
# Protocol: as §1
# SK-BR3 = test: as above; type: cell-based; settings: Homo sapiens, SK-BR-3; 48 hours exposure
# Protocol: as §1
# SW620 = test: as above; type: cell-based; settings: Homo sapiens, SW-620; 48 hours exposure
# Protocol: as §1
# [1] = biological target: T2, EGF-R Kinase (recombinant enzyme) (Homo sapiens, UniProt P00533); test: Inhibition of Epidermal Growth Factor Receptor Kinase (EGF-R) using recombinant enzyme; type: biochemical; settings: RR-SRC peptide substrate, (a) = average of two tests
# T2 construct: EGFR cDNA encoding amino acids 645 - 1186 preceded by Met-Ala-(His)6; made in house; host or cells: Sf9 insect cells, recombinant baculovirus vHcEGFR52
# T2 sequence (P00533 669-1210): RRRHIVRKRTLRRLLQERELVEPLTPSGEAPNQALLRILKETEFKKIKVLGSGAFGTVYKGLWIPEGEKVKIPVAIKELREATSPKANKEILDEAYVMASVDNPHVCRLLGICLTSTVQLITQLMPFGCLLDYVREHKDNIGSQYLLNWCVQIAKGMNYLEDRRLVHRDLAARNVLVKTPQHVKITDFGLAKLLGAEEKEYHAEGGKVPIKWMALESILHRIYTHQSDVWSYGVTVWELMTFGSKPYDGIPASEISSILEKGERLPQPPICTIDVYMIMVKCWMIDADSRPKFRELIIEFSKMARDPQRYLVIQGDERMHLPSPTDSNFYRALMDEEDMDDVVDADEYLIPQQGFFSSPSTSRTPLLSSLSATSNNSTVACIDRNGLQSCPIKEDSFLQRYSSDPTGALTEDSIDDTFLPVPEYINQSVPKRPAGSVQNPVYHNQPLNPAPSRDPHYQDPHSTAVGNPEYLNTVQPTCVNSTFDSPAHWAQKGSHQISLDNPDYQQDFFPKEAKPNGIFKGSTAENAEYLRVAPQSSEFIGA
# Protocol: Representative test compounds are evaluated in a standard pharmacological test procedure to measure their ability to inhibit the phosphorylation of the tyrosine residue of a peptide substrate catalyzed by the enzyme epidermal growth factor receptor kinase. […] The enzyme used in this assay is the His-tagged cytoplasmic domain of EGFR. […] Sf9 cells in 100 mm plates are infected at a multiplicity of infection of 10 pfu/cell and cells are harvested 48 h post infection. A cytoplasmic extract is prepared using 1% Triton X-100 and applied to Ni-NTA column. After washing the column with 20 mM imidazole, HcEGFR is eluted with 250 mM imidazole (in 50 mM Na2HPO4, pH 8.0, 300 mM NaCl). Fractions collected are dialyzed against 10 mM HEPES, pH 7.0, 50 mM NaCl, 10% glycerol, 1ug/mL antipain and leupeptin and 0.1 mM Pefabloc SC. The protein is frozen in dry ice/methanol and stored -70°C.
# Test compounds are made into 10 mg/mL stock solutions in 100% dimethylsulfoxide (DMSO). Prior to experiment, stock solutions are diluted to 500 uM with 100% DMSO and then serially diluted to the desired concentration with HEPES buffer (30 mM HEPES pH 7.4).
# For the enzyme reaction, 10 uL of each inhibitor (at various concentrations) are added to each well of a 96-well plate. To this is added 3 uL of enzyme (1:10 dilution in 10mM HEPES, pH 7.4 for final conc. of 1:120). This is allowed to sit for 10 min on ice and is followed by the addition of 5 ul peptide (80 uM final conc.), 10ul of 4X Buffer containing 50 mM HEPES (pH 7.4), 200 mM Na3VO4, 40mM MnCl2, 80 uM ATP, 0.25 uL ^33P-ATP (>2500 Ci/mmol; Amersham) and 12 uL H2O. The reaction is allowed to run for 90 min at room temperature and is followed by spotting the entire volume onto precut P81 filter papers. The filter discs are washed 2X with 0.5% phosphoric acid and radioactivity is measured using a liquid scintillation counter.
# The % inhibition of the test compound is determined for at least three different concentrations and the IC50 value is evaluated from the dose response curve. […] CPM(control) is in units of counts per minute and is a number expressing the amount of radiolabled ATP (γ-^33P) incorporated into the RR-SRC peptide substrate by the enzyme after 90 minutes at room temperature in the absence of test compound as measured by liquid scintillation counting. The CPM values are corrected for the background counts produced by ATP in the absence of the enzymatic reaction.
# [2] = test system: Rat2 fibroblasts stably transformed with v-Src/Hu c-Src fusion gene; test: Anchorage independent Src-transformed fibroblast proliferation test procedure; type: cell-based; settings: Rattus norvegicus, the 3rd table c6, (a)-(d) = average of two to five runs, read-out: Src TF prolif IC50
# Source text: Anchorage Independent Src-transformed Fibroblast Proliferation Test Procedure: Rat2 fibroblasts stably transformed with a plasmid containing a CMV promotor controlled v-Src/Hu c-Src fusion gene in which the catalytic domain of human c-Src is inserted in place of the v-Src catalytic domain in the v-Src gene are used for the measurement of src dependent suspension growth.
# T1 sequence (P12931 whole entry): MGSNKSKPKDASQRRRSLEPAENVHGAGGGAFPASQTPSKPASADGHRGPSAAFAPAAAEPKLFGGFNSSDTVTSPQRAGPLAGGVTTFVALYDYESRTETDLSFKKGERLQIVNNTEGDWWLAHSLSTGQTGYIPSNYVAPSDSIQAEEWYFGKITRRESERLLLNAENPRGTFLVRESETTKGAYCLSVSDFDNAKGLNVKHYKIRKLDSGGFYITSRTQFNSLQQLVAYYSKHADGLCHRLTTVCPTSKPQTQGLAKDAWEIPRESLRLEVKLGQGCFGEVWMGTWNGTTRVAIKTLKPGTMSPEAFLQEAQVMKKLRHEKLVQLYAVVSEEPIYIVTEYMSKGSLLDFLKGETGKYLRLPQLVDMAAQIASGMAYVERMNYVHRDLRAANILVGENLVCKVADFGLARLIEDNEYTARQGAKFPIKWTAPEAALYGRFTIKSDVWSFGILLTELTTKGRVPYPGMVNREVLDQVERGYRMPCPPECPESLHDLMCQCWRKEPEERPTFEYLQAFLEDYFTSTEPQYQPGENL
compound,measurement,setting,value
"N#Cc1cnc2c(sc3ccc([N+](=O)[O-])cc32)c1Nc1ccc(Cl)cc1Cl [Example 90, 4-(2,4-Dichloroanilino)-8-nitro[1]benzothieno[3,2-b]pyridine-3-carbonitrile]",inhibition at 1 µM,"p60^c-src (Src); dose 1 µM, read-out: Src %Inh",0%
same,IC50,A431,0.41 µg/mL
same,IC50,MDA-MB-435,0.46 µg/mL
same,IC50,SK-BR3,0.59 µg/mL
same,IC50,SW620,0.67 µg/mL
"N#Cc1cnc2c(oc3ccccc32)c1Nc1cccc(Br)c1 [Example 85, 4-(3-Bromophenylamino)benzo[4,5]furo[3,2-b]pyridine-3-carbonitrile]",IC50,[1],1000 nM
same,Src %Inh,p60^c-src (Src); dose 10 µM,44%
same,inhibition at 10 µM,"p60^c-src (Src); dose 10 µM, read-out: Src %Inh",53%
same,IC50,A431,> 5 µg/mL
same,IC50,MDA-MB-435,> 5 µg/mL
same,IC50,SK-BR3,> 5 µg/mL
same,IC50,SW620,> 5 µg/mL
"C=CC(=O)Nc1cccc2c1sc1c(Nc3cccc(Br)c3)c(C#N)cnc12 [Example 94, N-[4-(3-Bromoanilino)-3-cyano[1]benzothieno[3,2-b]pyridin-6-yl]acrylamide]",IC50,[1],100 nM
same,IC50,A431,1.11 µg/mL
same,IC50,MDA-MB-435,3.9 µg/mL
same,IC50,SK-BR3,1.09 µg/mL
same,IC50,SW620,> 5 µg/mL
"N#Cc1cnc2cc3cc(O)c(O)cc3cc2c1Nc1ccc(Cl)cc1Cl [Example 15, 4-(2,4-Dichloroanilino)-7,8-dihydroxybenzo[g]quinoline-3-carbonitrile]",inhibition at 0.01 µM,"p60^c-src (Src); dose 0.01 µM, read-out: Src %Inh",10%
same,IC50,A431,0.58 µg/mL
same,IC50,MDA-MB-435,0.85 µg/mL
same,IC50,SK-BR3,> 5 µg/mL
same,IC50,SW620,0.38 µg/mL
"C=CC(=O)Nc1ccc2sc3c(Nc4cccc(Br)c4)c(C#N)cnc3c2c1 [Example 93, N-[4-(3-Bromoanilino)-3-cyano[1]benzothieno[3,2-b]pyridin-8-yl]acrylamide]",IC50,A431,0.838 µg/mL
same,IC50,MDA-MB-435,1.69 µg/mL
same,IC50,SK-BR3,0.224 µg/mL
same,IC50,SW620,1 µg/mL
"N#Cc1cnc2c(sc3ccc(N)cc32)c1Nc1cccc(Br)c1 [Example 92, 8-Amino-4-(3-bromoanilino)-[1]benzothieno[3,2-b]pyridine-3-carbonitrile]",IC50,A431,> 5 µg/mL
same,IC50,MDA-MB-435,> 5 µg/mL
same,IC50,SK-BR3,> 5 µg/mL
same,IC50,SW620,> 5 µg/mL
"COc1cc2cc3ncc(C#N)c(Nc4ccc(F)c(Cl)c4)c3cc2cc1OCCN1CCOCC1 [Example 212, 4-(3-Chloro-4-fluoroanilino)-8-methoxy-7-[2-(4-morpholinyl)ethoxy]benzo[g]quinoline-3-carbonitrile]",IC50,[1],1890 nM
same,IC50,[2],> 10000 nM
same,IC50,A431,0.76 µg/mL
same,IC50,SK-BR3,0.04 µg/mL
same,IC50,SW620,0.36 µg/mL
"N#Cc1cnc2c(sc3ccccc32)c1Nc1cccc(Br)c1 [Example 65, 4-(3-Bromophenylamino)benzo[4,5]thieno[3,2-b]pyridine-3-carbonitrile]",IC50,[1],1000 nM
same,inhibition at 10 µM,"p60^c-src (Src); dose 10 µM, read-out: Src %Inh",7%
same,IC50,A431,> 5 µg/mL
same,IC50,MDA-MB-435,> 5 µg/mL
same,IC50,SK-BR3,> 5 µg/mL
same,IC50,SW620,> 5 µg/mL
"N#Cc1cnc2c(c1Nc1cccc(Br)c1)C=C1N=CN=C1C2 [Example 37, 8-(3-Bromo-phenylamino)imidazo[4,5-g]quinoline-7-carbonitrile]",IC50,[1],1.5 nM
same,IC50,A431,0.58 µg/mL
same,IC50,MDA-MB-435,3.48 µg/mL
same,IC50,SK-BR3,0.6 µg/mL
same,IC50,SW620,3.72 µg/mL
"N#Cc1cnc2cc3ccccc3cc2c1Nc1ccc(F)c(Cl)c1 [Example 4, 4-(3-Chloro-4-fluoroanilino)benzo[g]quinoline-3-carbonitrile]",IC50,[1],5 nM
same,IC50,A431,0.332 µg/mL
same,IC50,MDA-MB-435,1.65 µg/mL
same,IC50,SK-BR3,1.01 µg/mL
same,IC50,SW620,1.08 µg/mL
